Laboratory results published in patent US11413301B2, “Composition comprising sea cucumber extract as effective ingredient for preventing and treating Bruch's membrane dysfunction-related disease” (priority 2016, dated 2022).

What was measured:
[1] = system: MMP enzyme secreted from a human Bruch's membrane; test: MMP secretion from Bruch's membrane incubated with Frondoside A (zymography); settings: Frondoside A 167 μg/mL, 30 hours
Experimental: Zymography was performed using the solution incubated for 30 hours in the measurement of hydraulic conductivity in Example 10. Specifically, a Bruch's membrane was incubated with a Tris buffer solution as a control or a Frondoside A solution (167 μg/mL) for 30 hours, 50 μL of the resulting solution was mixed with 50 μL of the SDS sample buffer, and then 30 μL of the resulting mixture was loaded on a gel to measure an MMP enzyme secreted from a human Bruch's membrane.

[2] = system: lipids of Bruch's membrane; test: Lipid removal from Bruch's membrane by Frondoside A (lipid extracted from membrane, TLC); design: species or system human; settings: Frondoside A 167 μg/mL, membrane after hydraulic conductivity measurement
Experimental: To confirm the lipid removal effect of Frondoside A, after the measurement of hydraulic conductivity in Example 10, the Bruch's membrane was cut into a piece having a diameter of 6 mm, and then a lipid was extracted using a CM solution (chloroform:methanol=2:1), followed by evaporating the solvent. After 50 μL of a CM solution was added thereto again, 40 μL of the resulting solution was dropped on a silica gel TLC plate, and the type and amount of the lipid were analyzed.

[3] = system: human Bruch's membrane; test: Hydraulic conductivity of isolated Bruch's membrane (open-type Ussing chamber, fluid transport under hydrostatic pressure)
Experimental: First, to confirm the waste transport ability, the hydraulic conductivity of the Bruch's membrane isolated from a donated eye was measured. The isolated Bruch's membrane was mounted in an open-type Ussing chamber to measure a quantitative change in fluid under hydrostatic pressure and calculate a change in hydraulic conductivity (FIGS. 5B and 5C). […] The data of FIG. 5D is expressed using a semi-log plot with the logarithmic scale on the y-axis to convert exponential decay to a linear plot. To maintain the function of photoreceptor cells, the Bruch's membrane requires a minimal hydraulic conductivity function, which represents a failure line. […] All of the hydraulic conductivities measured for the peripheral regions of the 11 macular degeneration patients may be observed to be below the mean regression line (refer to the black circle and the red line in FIG. 5E), showing that, in the peripheral region, rather than the macular region, the decrease in the material transport function progresses to a serious condition. […]
In addition, to investigate the improvement of the transport function of the Bruch's membrane according to the dose of the sea cucumber extract, Bruch's membranes isolated from the eyes of four donors ranging from 69 to 84 years of age were measured, a dose response curve for the improvement of hydraulic conductivity was expressed. […]

SMILES: COC1C(O)C(CO)OC(OC2C(O)COC(OC3C(C)OC(OC4C(O[C@H]5CC[C@]6(C)C7CCC89C(=O)O[C@@](C)(CCCC(C)C)[C@H]8[C@@H](OC(C)=O)C[C@@]9(C)C7=CC[C@H]6C5(C)C)OCC(OS(=O)(=O)[O-])C4O)C(OC4OCC(O)C(O)C4O)C3O)C2O)C1O.[Na+] (stereo partly shown) [Frondoside A]
- secretion of Pro-MMP9 bound to the membrane [1]: an enormous amount of Pro-MMP9 bound to the membrane was secreted
- removal of Ch from the Bruch's membrane [2]: did not have an effect
- removal of ChE from the Bruch's membrane [2]: did not have an effect
- removal of TG from the Bruch's membrane [2]: did not have an effect
- removal of phosphatidylcholine from the Bruch's membrane [2]: had an effect of removing phosphatidylcholine
- effect on the improvement of hydraulic conductivity relative to the control ([3]; Frondoside A 167 μg/mL, control Tris buffer): ≥ 1.6 fold
- hydraulic conductivity Fold-change Mean ± SD (n) ([3]; Frondoside A 167 μg/ml): 1.65 ± 0.2 (3) Fold-change
